“Also recorded” adds a separate entry of the source.
Key:
[1] = test system: mucin from porcine stomach type III; test: UV-visible localized spectroscopy: diffusion from mucin dispersions into water (Drel), and of mucin itself; type: physicochemical; settings: compared to the absence of mucin
From the text: Mucin type III from porcine stomach was dispersed in PBS 65 mOsm/kg (pH 7.4) to obtain 0.1, 0.3 and 0.6% (w/w) mucin dispersions.
In brief, Fick’s second law of diffusion was analytically solved (Equation (1)) assuming times (t) and positions (x) such that t ≪ h2/D and x ≪ h (where h is the full length of the cuvette occupied by water, 3.30 cm). […] (1) c(x,t)=2A/π e^−x^2/2σ^2+4Dt/2σ^2+4Dt

[2] = UV-visible localized spectroscopy: drug diffusion coefficient in water (D0); settings: no mucin; drug in PBS 65 mOsm/kg pH 7.4 injected into water; 23–25 °C; average of two parallel experiments
[3] = parameters: method as in Drugbank [15]; settings: ref Drugbank [15], cited from earlier work
[4] = test system: purified gastric mucin type II; parameters: method as in PMID 9188047, PMID 9487548; settings: ref [24],[25]; cited from earlier work
[5] = parameters: method as in PMID 9188047, PMID 9487548; settings: ref [24],[25]; cited from earlier work

D Reduction (%) ([1]; MUC 0.0%) | D Reduction (%) ([1]; MUC 0.1% w/w) | D Reduction (%) ([1]; MUC 0.3% w/w) | D Reduction (%) ([1]; MUC 0.6% w/w) | D0 (diffusion coefficient in plain water) [2] | SMILES | Charge at pH 7.4 [3] | pKa [3] | Diffusion in purified gastric mucin versus phosphate buffer [4] | Diffusion in native pig intestinal mucus [5]
0 | 25 | 53 | 65 | 8.02 10^−6 cm^2/s | COc1ccc2cc([C@H](C)C(=O)O)ccc2c1 [NPR, naproxen] |  |  |  | 
0 | 24 | 47 | 63 | 5.81 10^−6 cm^2/s | CC(C)NCC(O)COc1ccc(CC(N)=O)cc1 (stereo not shown) [ATN, Atenolol] |  |  |  | 
0 | 17 | 36 | 37 | 6.44 10^−6 cm^2/s | C[C@]12CCC(=O)C=C1CC[C@@H]1[C@@H]2[C@@H](O)C[C@@]2(C)[C@H]1CC[C@]2(O)C(=O)CO [HYD, hydrocortisone] | 0 | 12.6 | comparable to the one in phosphate buffer; also recorded: not hindered compared to phosphate buffer | impaired to a higher extent; also recorded: slow down the diffusion

SMILES | D Reduction (%) ([1]; MUC 0.0%) | D Reduction (%) ([1]; MUC 0.1% w/w) | D Reduction (%) ([1]; MUC 0.3% w/w) | D Reduction (%) ([1]; MUC 0.6% w/w) | D0 (diffusion coefficient in plain water) [2] | Charge at pH 7.4 [3] | pKa [3] | Diffusion in purified gastric mucin versus phosphate buffer [4] | Diffusion in native pig intestinal mucus [5]
Cn1c(=O)c2c(ncn2C)n(C)c1=O [CAF, caffeine] | 0 | 33 | 51 | 67 | 9.07 10^−6 cm^2/s | 0 |  |  | 

Source: publication PMC7076515, “Impact of Mucin on Drug Diffusion: Development of a Straightforward In Vitro Method for the Determination of Drug Diffusivity in the Presence of Mucin” (Pharmaceutics, 2020)
